# Tests used:
# [1] = system: tumors; assay: Survival of tumor-bearing mice treated with PI3K inhibitor BKM120 (Example 3); assay type: in vivo, C57/BL6 mice; conditions: Treatment Group 1: BKM120 37.5 mg/kg daily oral gavage with standard chow; not statistically different from Control (6.1 days)
# Protocol: In this experiment, β-hydroxybutyrate (βHB) in formulations of the disclosure was tested for its ability to enhance the efficacy of PI3K inhibitors and compared to a ketogenic diet.
# In vivo tests were performed as follows: C57/BL6 mice 8 weeks of age They were injected with […] cells in a 1:1 mix of growth media and matrigel. and tumors were allowed to grow to a minimum diameter of 0.6 cm before the initiation of treatment. All mice were treated daily with the P3K inhibitor BKM120 (37.5 mg/kg) by oral gavage and were given either a normal chow diet, a ketogenic diet, or a normal chow diet with there topically applied βHB. Trial design was built to assess this primary outcome: survival time. Treatment groups randomized as follows: […]
# b. Treatment Group 1: BKM120 treatment with standard rodent chow c. Treatment Group 2: BKM120 treatment with ketogenic rodent chow d. Treatment Group 3: BKM120 treatment with standard rodent chow with 100 μL of βHB formulation applied topically twice daily. Formulations detailed below
# [2] = Time to complete an 8 arm radial maze (Example 4); assay type: in vivo, Wistar rats; conditions: 5 days; topical = Formulation D 100 μL twice daily; ketone ester as 30% of calories
# Protocol: (§1) In vivo tests were performed as follows: Wistar rats were treated with either topically applied βHB or a ketone ester diet. The experiment lasted for 5 days. Trial design was built to assess these primary outcomes: the effects on distance run on a treadmill, and on time to complete an 8 arm radial maze. Treatment groups randomized as follows: a. Control Group: standard diet (calorically matched to all treatment groups) b. Treatment Group 1: ketone ester diet with chow that is supplemented with (R)-3-hydroxybutyl (R)-3-hydroxybutyrate as 30% of calories c. […] Formulations detailed below [table]
# [3] = Distance run on a treadmill (Example 4); assay type: in vivo, Wistar rats; conditions: 5 days; topical = Formulation D 100 μL twice daily; ketone ester as 30% of calories
# Protocol: as §1
# [4] = system: firefly luciferase-tagged syngeneic VM-M3 cells; assay: Survival of VM mice with metastatic cancer (Example 2); assay type: in vivo; conditions: VM-M3 implanted VM mice
# Protocol: In this experiment, β-hydroxybutyrate (βHB) in formulations of the disclosure was tested for its ability to decrease tumor cell viability and prolong survival and compared to an orally delivered diet supplemented with either 1,3-butanediol (BD) or a ketone ester (KE), which are metabolized to the ketone bodies βHB and acetoacetate.
# In vivo tests were performed as follows: Adult male inbred VM mice were implanted subcutaneously with firefly luciferase-tagged syngeneic VM-M3 cells. The mice were then fed a standard diet with no topical treatment, a standard diet supplemented with either 1,3-butanediol (BD) or a ketone ester (KE), or a standard diet with topically applied βHB. Trial design was built to assess this primary outcome: survival time. Treatment groups randomized as follows: […]
# a. Control Group: standard diet rodent chow b. Treatment Group 1: standard diet rodent chow mixed with 20% 1,3-butanediol (BD) by volume and 1% saccharin for palatability c. Treatment Group 2: standard diet rodent chow mixed with 10% ketone esters (KE) by volume and 1% saccharin for palatability d. Treatment Group 3: standard diet rodent chow with 100 μL of βHB formulation applied topically twice daily. Formulations detailed below
# [5] = Blood glucose levels in rats after ketone supplements (Example 5); assay type: in vivo, Sprague-Dawley rats; conditions: 10 g/kg intragastric gavage; 4-week study
# Protocol: In this experiment, β-hydroxybutyrate (βHB) in formulations of the disclosure was tested for its ability to impact blood ketone and glucose levels and compared to oral delivery of various exogenous ketone supplements.
# The experiment lasted for 28 days. Trial design was built to assess these primary outcomes: the effects on blood ketones and blood glucose. Blood samples were taken for analysis of glucose and βHB at baseline and, 0.5, 1, 4, 8, and 12 h post-treatment. Treatment groups randomized as follows:
# Treatment Group 1: daily 10 g/kg dose via intragastric gavage of 1,3-butanediol (BD)
# Treatment Group 2: daily 10 g/kg dose via intragastric gavage of sodium/potassium β-hydroxybutyrate (βHB) mineral salt (BMS)
# Treatment Group 3: daily 10 g/kg dose via intragastric gavage of medium chain triglyceride oil (MCT)
# Treatment Group 5: daily 10 g/kg dose via intragastric gavage of 1,3 butanediol acetoacetate diester (KE)
# g. Treatment Group 6: 100 μL of βHB formulation applied topically daily.
compound,measurement,setting,value
Nc1cc(C(F)(F)F)c(-c2cc(N3CCOCC3)nc(N3CCOCC3)n2)cn1 [BKM120],mean survival time,[1],6.7 days
"C[C@@H](O)CCOC(=O)C[C@@H](C)O [ketone ester diet, (R)-3-hydroxybutyl (R)-3-hydroxybutyrate]",mean decrease in time to solve the maze vs control,[2],38%
same,mean increase in treadmill distance vs control,[3],32%
"CC(O)CCO (stereo not drawn) [oral BD, 1,3-butanediol]",mean increase in mean survival time versus Control Group,"[4]; BD 20% or KE 10% in chow, topical = Formulation B 100 μL twice daily",50.6%
same,mean survival time,"[4]; Control Group 31.2 days, topical = Formulation B",47.0 days
same,effect on blood glucose,[5],did not significantly change blood glucose levels at any time point
